Measured values from patent US7632782B2, “Synergistically acting herbicidal mixtures” (BASF Aktiengesellschaft, priority 2002, dated 2009).

Assays:
Format in all cases: in vivo
Avena fatua = assay: Herbicidal action, post-emergence treatment, greenhouse
From the text: (§1) The mixtures according to the invention were applied pre- and/or post-emergence (foliar treatment). The herbicidal compounds of component B) and, if desired, of component C) as well as the safener D) were applied in the formulation in which they are present as commercially available product (s).
(§2) The herbicidally active compounds of components A), B) and, if desired, C), and, if desired D), were applied in succession or jointly, in the latter case in some cases as a tank mix and in some cases as a readymix, in the form of emulsions, aqueous solutions or suspensions, the vehicle being water (300-400 l/ha). In the case of the field trials, application was effected with the aid of a mobile plot sprayer.
(§3) The test period extended over 3 to 8 weeks, and the stands were also observed at later points in time.
(§4) Damage by the herbicidal compositions was evaluated with reference to a scale of 0% to 100% in comparison with untreated control plots. 0 means no damage and 100 means complete destruction of the plants.
(§5) In these examples, the value […] at which only an additive effect of the individual active ingredients is to be expected was calculated by the method of S. R. Colby (Calculating synergistic and antagonistic responses of herbicide combinations, Weeds 15, 20 pp (1967)).
(§6) [formula] where • X=Percentage of the herbicidal action of component A) at an application rate of a; • Y=Percentage of the herbicidal action of component B), and, if desired, C), and, if desired, D) at an application rate of b, and, if desired, c, and, if desired, d; • E=expected herbicidal action of component A)+B), and, if desired C), and; if desired, D) at rates of application a+b, and, if desired, c and, if desired, d (in %).
(§7) If the value observed exceeds the value E calculated in accordance with Colby's formula, then synergism is present.

Pharbitis purpurea [1] = assay: as above
From the text: as §1, §2, §3, §4, §5, §6, §7

Abutilon theophrasti = assay: as above
From the text: as §1, §2, §3, §4, §5, §6, §7

Pharbitis purpurea [2] = assay: Herbicidal action, post-emergence treatment, field; details: Table 9, application rate 3.91 g/ha ai
From the text: as §1, §2, §3, §4, §5, §6, §7

Brachiaria plantaginea = assay: Herbicidal action, post-emergence treatment, field; details: Table 15, application rate 3.91 g/ha ai
From the text: as §1, §2, §3, §4, §5, §6, §7

Bidens pilosa [3] = assay: Herbicidal action, post-emergence treatment, field
From the text: as §1, §2, §3, §4, §5, §6, §7

Commelina benghalensis = assay: Herbicidal action, post-emergence treatment, field; details: Table 5, application rate 7.81 g/ha ai
From the text: as §1, §2, §3, §4, §5, §6, §7

Polygonum persicaria = assay: Herbicidal action, post-emergence treatment, field; details: Table 10, application rate 1.95 g/ha ai
From the text: as §1, §2, §3, §4, §5, §6, §7

Bidens pilosa [4] = assay: Herbicidal action, post-emergence treatment, greenhouse; details: Table 12, application rate 7.81 g/ha ai
From the text: as §1, §2, §3, §4, §5, §6, §7

Galium aparine = assay: as above; details: Table 11, application rate 7.81 g/ha ai
From the text: as §1, §2, §3, §4, §5, §6, §7

Amaranthus retroflexus = assay: as above
From the text: as §1, §2, §3, §4, §5, §6, §7

[5] = Table 3, application rate 1.95 g/ha ai
[6] = Table 4, application rate 0.98 g/ha ai
[7] = Table 3, application rate 3.91 g/ha ai
[8] = Table 4, application rate 1.95 g/ha ai
[9] = Table 6, application rate 3.91 g/ha ai
[10] = Table 8, application rate 1.95 g/ha ai
[11] = Table 14, application rate 3.91 g/ha ai

## COc1cc(OC)nc(NC(=O)NS(=O)(=O)c2cc(NC=O)ccc2C(=O)N(C)C)n1 [Compound II, foramsulfuron, reference compound]
Avena fatua; [5]
  Avena fatua Damage [%]: 50%
Avena fatua; [6]
  Avena fatua Damage [%]: 30%
Pharbitis purpurea [1]; [5]
  Pharbitis purpurea Damage [%]: 80%
Abutilon theophrasti; [6]
  Abutilon theophrasti Damage [%]: 30%

## Cc1c(C(=O)c2cnn(C)c2O)ccc(S(C)(=O)=O)c1C1=NOCC1 [Ia.29, 4-[2-methyl-3-(4,5-dihydroisoxazol-3-yl)-4-methylsulfonyl-benzoyl]-1-methyl-5-hydroxy-1H-pyrazole]
Pharbitis purpurea [2]
  Pharbitis purpurea Damage [%]: 70%
Brachiaria plantaginea
  Brachiaria plantaginea Damage [%]: 80%
Bidens pilosa [3]; Table 7, application rate 3.91 g/ha ai
  Bidens pilosa Damage [%]: 30%
Bidens pilosa [3]; Table 13, application rate 7.81 g/ha ai
  Bidens pilosa Damage [%]: 60%
Commelina benghalensis
  Commelina benghalensis Damage [%]: 40%
Polygonum persicaria
  Polygonum persicaria Damage [%]: 95%
Avena fatua; [7]
  Avena fatua Damage [%]: 50%
Avena fatua; [8]
  Avena fatua Damage [%]: 25%
Pharbitis purpurea [1]; [7]
  Pharbitis purpurea Damage [%]: 70%
Bidens pilosa [4]
  Bidens pilosa Damage [%]: 60%
Galium aparine
  Galium aparine Damage [%]: 30%
Abutilon theophrasti; [8]
  Abutilon theophrasti Damage [%]: 40%
Abutilon theophrasti; [9]
  Abutilon theophrasti Damage [%]: 80%
Abutilon theophrasti; [10]
  Abutilon theophrasti Damage [%]: 40%
Abutilon theophrasti; Table 11, application rate 7.81 g/ha ai
  Abutilon theophrasti Damage [%]: 95%
Abutilon theophrasti; Table 12, application rate 7.81 g/ha ai
  Abutilon theophrasti Damage [%]: 95%
Abutilon theophrasti; [11]
  Abutilon theophrasti Damage [%]: 80%
Amaranthus retroflexus; [9]
  Amaranthus retroflexus Damage [%]: 60%
Amaranthus retroflexus; [10]
  Amaranthus retroflexus Damage [%]: 40%
Amaranthus retroflexus; [11]
  Amaranthus retroflexus Damage [%]: 60%
